Patent US10538497B2, “Compounds as indoleamine 2,3-dioxygenase inhibitors” (Merck Sharp & Dohme Corp., priority 2015, dated 2020)

What was measured:
IDO1 [1] = biological target: T1, IDO1 (Homo sapiens (Human), UniProt P14902); assay: IDO1 Cellular Assay in Hela Cells Stimulated with IFNγ; type: cell-based; conditions: Hela cells stimulated with IFNγ 100 ng/mL; read-out: IDO1 HELA Cell Assay, IC50
Protocol: IDO1 Cellular Assay in Hela Cells Stimulated with IFNγ
Hela cells were cultured in complete Hela culture medium (90% EMEM, 10% heat-inactivated fetal bovine serum) and expanded to about 1×10^9 cells. The cells were then collected and frozen down at 10×10^6 cells/vial in 1 mL frozen medium (90% complete Hela culture medium, 10% DMSO)
Frozen Hela cells were thawed and transferred into Hela assay medium (99% complete Hela culture medium, 1% Pen/Strep) with 20 mL medium/vial of cells. The cells were spun down at 250 g in a table top centrifuge for 5 min and suspended in same volume of Hela assay medium. The cells were then counted and adjusted to a density of 2×10^5 cells/ml in Hela assay medium. Sterile L-tryptophan were added to the cells with final concentration of 300 uM L-tryptophan. A small aliquot (2 mL/plate) of Hela cells were set aside and were not treated with IFNγ, to serve as the Max-E control. The rest of Hela cells were added with sterile IFNγ (Cat #285-IF, R & D systems) with a final concentration of 100 ng/mL.
Hela cells with and without IFNγ were dispensed to the respective wells of 384-well assay plates containing the compounds. The plates were incubated for about 48 hours at a 37° C., 5% CO2 incubator. […] The plates were centrifuged for 1 min at 200×g. The resulting fluorescence was measured in a Spectramax plate reader (Molecular Devices) with a 400 nm excitation filter and a 510 nm emission filter.

IDO1 [2] = biological target: T1, IDO1; assay: IDO1 Enzyme Assay; conditions: HIS-tagged recombinant IDO1, 40 nM
[3] = read-out: IDO1 Enzyme Assay, IC50

T1 sequence (P14902 whole entry): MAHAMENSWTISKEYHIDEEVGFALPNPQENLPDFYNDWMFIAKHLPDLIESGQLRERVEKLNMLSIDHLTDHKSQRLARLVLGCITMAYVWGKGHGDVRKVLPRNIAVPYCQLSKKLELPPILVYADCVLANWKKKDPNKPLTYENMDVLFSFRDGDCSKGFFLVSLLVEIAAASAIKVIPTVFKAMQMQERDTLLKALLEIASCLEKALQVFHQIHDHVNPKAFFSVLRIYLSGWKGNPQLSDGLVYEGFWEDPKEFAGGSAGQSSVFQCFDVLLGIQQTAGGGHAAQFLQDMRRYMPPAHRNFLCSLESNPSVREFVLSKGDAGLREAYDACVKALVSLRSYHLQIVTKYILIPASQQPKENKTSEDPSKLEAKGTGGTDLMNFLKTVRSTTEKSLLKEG

SMILES	IC50 (IDO1 [1]) [nM]	IC50 (IDO1 [2]; IDO1 Enzyme Assay, IC50, nM) [nM]	IC50 (IDO1 [2]; [3]) [nM]
O=C(CSc1nonc1/C(=N/O)Nc1ccc(F)c(Br)c1)NCC(O)CN1CCOCC1 (single isomer, unassigned) [Example 206, 2-((4-(N-(3-bromo-4-fluorophenyl)-N′-hydroxycarbamimidoyl)-1,2,5-oxadiazol-3-yl)thio)-N-(2-hydroxy-3-morpholinopropyl)acetamide]	111	39.3	–
O=C(CSc1nonc1/C(=N/O)Nc1ccc(F)c(Br)c1)NCC(O)CN1CCOCC1 (single isomer, unassigned) [Example 207, 2-((4-(N-(3-bromo-4-fluorophenyl)-N′-hydroxycarbamimidoyl)-1,2,5-oxadiazol-3-yl)thio)-N-(2-hydroxy-3-morpholinopropyl)acetamide]	140	43.1	–
CC(=O)NCCOc1nonc1/C(=N/O)Nc1ccc(F)c(Br)c1 [Example 5, N-(2-((4-(N-(3-bromo-4-fluorophenyl)-N′-hydroxycarbamimidoyl)-1,2,5-oxadiazol-3-yl)oxy)ethyl)acetamide]	94	–	47.6
O=C(COc1nonc1/C(=N/O)Nc1ccc(F)c(Br)c1)NCCO [Example 6, 2-((4-(N-(3-Bromo-4-fluorophenyl)-N′-hydroxycarbamimidoyl)-1,2,5-oxadiazol-3-yl)oxy)-N-(2-hydroxyethyl)acetamide]	144	–	44
CC(C)(CO)NC(=O)CSc1nonc1/C(=N/O)Nc1ccc(F)c(Br)c1 [Example 27, 2-((4-(N-(3-bromo-4-fluorophenyl)-N′-hydroxycarbamimidoyl)-1,2,5-oxadiazol-3-yl)thio)-N-(1-hydroxy-2-methylpropan-2-yl)acetamide]	17.6	–	29.8
CC(C)(O)CNC(=O)CSc1nonc1/C(=N/O)Nc1ccc(F)c(Br)c1 [Example 28, 2-((4-(N-(3-bromo-4-fluorophenyl)-N′-hydroxycarbamimidoyl)-1,2,5-oxadiazol-3-yl)thio)-N-(2-hydroxy-2-methylpropyl)acetamide]	65.9	–	38
O=c1c(NCCSc2nonc2/C(=N/O)Nc2ccc(F)c(Br)c2)c(NCC2CC2)c1=O [Example 89, N-(3-bromo-4-fluorophenyl)-4-{[2-({2-[(cyclopropylmethyl)amino]-3,4-dioxocyclobut-1-en-1-yl}amino)ethyl]sulfanyl}-N′-hydroxy-1,2,5-oxadiazole-3-carboximidamide]	–	–	39
O=c1c(NCCO)c(NCCSc2nonc2/C(=N/O)Nc2ccc(F)c(Br)c2)c1=O [Example 90, N-(3-bromo-4-fluorophenyl)-N′-hydroxy-4-{[2-({2-[(2-hydroxyethyl)amino]-3,4-dioxocyclobut-1-en-1-yl}amino)ethyl]sulfanyl}-1,2,5-oxadiazole-3-carboximidamide]	–	–	29.3
O=C(CSc1nonc1C(=NO)Nc1ccc(F)c(Br)c1)N1CCC[C@H]1CO [Example 134, N-(3-bromo-4-fluorophenyl)-N′-hydroxy-4-({2-[(2S)-2-(hydroxymethyl)pyrrolidin-1-yl]-2-oxoethyl}sulfanyl)-1,2,5-oxadiazole-3-carboximidamide]	–	120	–
O=C(CSc1nonc1C(=NO)Nc1ccc(F)c(Br)c1)N1CCC[C@@H]1CO [Example 135, N-(3-bromo-4-fluorophenyl)-N′-hydroxy-4-({2-[(2R)-2-(hydroxymethyl)pyrrolidin-1-yl]-2-oxoethyl}sulfanyl)-1,2,5-oxadiazole-3-carboximidamide]	–	106	–
O=C(CSc1nonc1C(=NO)Nc1ccc(F)c(Br)c1)N1CCCC1 [Example 136, N-(3-bromo-4-fluorophenyl)-N′-hydroxy-4-[(2-oxo-2-pyrrolidin-1-ylethyl)sulfanyl]-1,2,5-oxadiazole-3-carboximidamide]	–	112	–
O=C(CSc1nonc1C(=NO)Nc1ccc(F)c(Br)c1)NCCF [Example 137, 2-({4-[N-(3-bromo-4-fluorophenyl)-N′-hydroxycarbamimidoyl]-1,2,5-oxadiazol-3-yl}sulfanyl)-N-(2-fluoroethyl)acetamide]	–	34.9	–
